# Values of other authors as cited in publication PMC5852599, “Microfluidic Devices for Drug Delivery Systems and Drug Screening” (Genes, 2018).
# Test system: breast cancer cells (Her-2)
# Parameters: method as in PMID 20237849
# Settings: 3D tumor spheroid in alginate hydrogel, compared to 2D cell culture
compound,measurement,value
COc1cccc2c1C(=O)c1c(O)c3c(c(O)c1C2=O)C[C@@](O)(C(=O)CO)C[C@@H]3O[C@H]1C[C@H](N)[C@H](O)[C@H](C)O1 [doxorubicin],effectiveness on cell viability and proliferation,lower effectiveness
